In publication PMC3995681, “Structural, Kinetic and Proteomic Characterization of Acetyl Phosphate-Dependent Bacterial Protein Acetylation” (PLoS ONE, 2014):

Legend:
[1] = molecular target: T1, GapA (glyceraldehyde-3-phosphate dehydrogenase) (Escherichia coli, UniProt P0A9B2); assay: X-ray crystallography; conditions: NAD+-binding site, part of the molecules in the asymmetric unit
T1 construct: full ORF, N-terminal His6 tag plus TDPALRA spacer (ASKA clone, pCA24N), expressed in E. coli BL21(DE3); tetramer
T1 sequence (P0A9B2 whole entry): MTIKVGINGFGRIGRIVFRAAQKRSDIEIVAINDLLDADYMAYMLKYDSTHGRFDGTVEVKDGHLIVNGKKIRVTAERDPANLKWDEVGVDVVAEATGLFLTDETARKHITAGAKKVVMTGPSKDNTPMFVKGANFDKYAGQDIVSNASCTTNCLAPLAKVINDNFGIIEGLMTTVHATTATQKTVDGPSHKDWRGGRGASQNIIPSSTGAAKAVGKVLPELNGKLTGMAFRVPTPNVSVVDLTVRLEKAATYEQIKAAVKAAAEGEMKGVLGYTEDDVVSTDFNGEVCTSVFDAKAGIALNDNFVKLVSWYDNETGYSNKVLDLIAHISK

RNAP sigma70 holoenzyme = molecular target: T2, RNAP sigma70 holoenzyme (Escherichia coli, UniProt P00579+P0A7Z4+P0A8V2); assay: in vitro acetylation, anti-acetyllysine Western blot and MS1 Filtering; format: biochemical; conditions: covalent; acetylation of RpoA K297, RpoB K1065, RpoD K493 and K593; 10 mM acP, 30 min, 10 mM MgCl2
T2 construct: gene rpoA; with DNA-directed RNA polymerase subunit beta'; DNA-directed RNA polymerase subunit omega
T2 sequence (P0A7Z4 whole entry): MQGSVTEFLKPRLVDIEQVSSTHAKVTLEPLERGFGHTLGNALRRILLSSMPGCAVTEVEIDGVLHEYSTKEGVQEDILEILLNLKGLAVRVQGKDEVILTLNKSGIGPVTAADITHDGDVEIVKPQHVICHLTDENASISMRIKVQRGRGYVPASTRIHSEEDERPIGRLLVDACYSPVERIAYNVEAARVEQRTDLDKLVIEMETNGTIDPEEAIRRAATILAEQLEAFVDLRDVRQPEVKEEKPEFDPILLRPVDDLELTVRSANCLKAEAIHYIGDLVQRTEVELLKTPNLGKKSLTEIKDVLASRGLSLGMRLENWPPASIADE
T2 sequence (P0A8V2 whole entry): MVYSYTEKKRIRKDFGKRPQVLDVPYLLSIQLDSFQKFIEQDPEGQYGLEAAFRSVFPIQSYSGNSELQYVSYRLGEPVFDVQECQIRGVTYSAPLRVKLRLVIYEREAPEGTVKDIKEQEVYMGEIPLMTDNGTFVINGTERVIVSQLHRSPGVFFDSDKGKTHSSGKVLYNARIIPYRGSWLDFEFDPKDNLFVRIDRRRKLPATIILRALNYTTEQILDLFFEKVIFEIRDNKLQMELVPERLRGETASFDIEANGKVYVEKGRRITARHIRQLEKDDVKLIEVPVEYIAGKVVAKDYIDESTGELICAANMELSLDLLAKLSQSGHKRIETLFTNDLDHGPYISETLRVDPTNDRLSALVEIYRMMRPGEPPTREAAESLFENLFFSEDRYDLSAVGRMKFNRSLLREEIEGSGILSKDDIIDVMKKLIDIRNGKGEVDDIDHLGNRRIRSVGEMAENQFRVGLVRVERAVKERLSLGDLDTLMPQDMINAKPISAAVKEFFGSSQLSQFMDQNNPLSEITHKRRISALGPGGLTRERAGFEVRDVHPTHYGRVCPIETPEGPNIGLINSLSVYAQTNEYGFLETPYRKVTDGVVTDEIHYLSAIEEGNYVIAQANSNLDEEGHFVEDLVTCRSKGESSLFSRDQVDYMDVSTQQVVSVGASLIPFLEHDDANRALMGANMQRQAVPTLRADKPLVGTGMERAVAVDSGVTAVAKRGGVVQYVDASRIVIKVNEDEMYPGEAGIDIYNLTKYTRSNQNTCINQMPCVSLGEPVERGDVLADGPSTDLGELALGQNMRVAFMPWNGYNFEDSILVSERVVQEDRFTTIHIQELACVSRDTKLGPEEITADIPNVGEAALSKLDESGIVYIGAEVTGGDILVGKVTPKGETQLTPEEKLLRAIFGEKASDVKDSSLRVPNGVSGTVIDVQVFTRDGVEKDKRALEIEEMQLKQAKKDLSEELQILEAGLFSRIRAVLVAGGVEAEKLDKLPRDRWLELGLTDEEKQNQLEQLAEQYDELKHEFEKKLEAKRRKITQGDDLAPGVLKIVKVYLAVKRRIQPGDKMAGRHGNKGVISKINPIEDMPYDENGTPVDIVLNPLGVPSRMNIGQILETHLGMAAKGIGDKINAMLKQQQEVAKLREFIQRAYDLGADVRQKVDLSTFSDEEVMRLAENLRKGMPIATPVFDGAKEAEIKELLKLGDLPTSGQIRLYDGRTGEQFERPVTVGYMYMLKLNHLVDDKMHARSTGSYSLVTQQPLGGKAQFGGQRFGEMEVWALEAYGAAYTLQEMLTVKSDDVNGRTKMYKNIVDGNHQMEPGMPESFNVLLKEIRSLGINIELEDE
T2 sequence (P00579 whole entry): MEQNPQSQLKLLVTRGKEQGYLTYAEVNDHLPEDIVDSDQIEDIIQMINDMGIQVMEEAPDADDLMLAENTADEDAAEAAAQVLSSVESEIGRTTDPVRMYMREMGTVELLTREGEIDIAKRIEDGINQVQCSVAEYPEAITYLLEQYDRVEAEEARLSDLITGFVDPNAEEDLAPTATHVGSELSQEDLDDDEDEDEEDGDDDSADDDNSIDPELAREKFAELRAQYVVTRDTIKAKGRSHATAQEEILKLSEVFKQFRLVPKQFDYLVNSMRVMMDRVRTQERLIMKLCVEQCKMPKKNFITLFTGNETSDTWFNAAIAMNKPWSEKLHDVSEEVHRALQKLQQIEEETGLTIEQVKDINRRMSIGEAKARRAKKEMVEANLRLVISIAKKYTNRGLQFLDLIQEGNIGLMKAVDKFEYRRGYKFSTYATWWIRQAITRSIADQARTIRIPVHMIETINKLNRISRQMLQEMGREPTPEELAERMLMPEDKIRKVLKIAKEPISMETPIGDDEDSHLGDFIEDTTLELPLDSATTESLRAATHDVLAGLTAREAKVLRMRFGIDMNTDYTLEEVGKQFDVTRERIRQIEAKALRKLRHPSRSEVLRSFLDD
T2 sequence (P0A8T7 whole entry partner): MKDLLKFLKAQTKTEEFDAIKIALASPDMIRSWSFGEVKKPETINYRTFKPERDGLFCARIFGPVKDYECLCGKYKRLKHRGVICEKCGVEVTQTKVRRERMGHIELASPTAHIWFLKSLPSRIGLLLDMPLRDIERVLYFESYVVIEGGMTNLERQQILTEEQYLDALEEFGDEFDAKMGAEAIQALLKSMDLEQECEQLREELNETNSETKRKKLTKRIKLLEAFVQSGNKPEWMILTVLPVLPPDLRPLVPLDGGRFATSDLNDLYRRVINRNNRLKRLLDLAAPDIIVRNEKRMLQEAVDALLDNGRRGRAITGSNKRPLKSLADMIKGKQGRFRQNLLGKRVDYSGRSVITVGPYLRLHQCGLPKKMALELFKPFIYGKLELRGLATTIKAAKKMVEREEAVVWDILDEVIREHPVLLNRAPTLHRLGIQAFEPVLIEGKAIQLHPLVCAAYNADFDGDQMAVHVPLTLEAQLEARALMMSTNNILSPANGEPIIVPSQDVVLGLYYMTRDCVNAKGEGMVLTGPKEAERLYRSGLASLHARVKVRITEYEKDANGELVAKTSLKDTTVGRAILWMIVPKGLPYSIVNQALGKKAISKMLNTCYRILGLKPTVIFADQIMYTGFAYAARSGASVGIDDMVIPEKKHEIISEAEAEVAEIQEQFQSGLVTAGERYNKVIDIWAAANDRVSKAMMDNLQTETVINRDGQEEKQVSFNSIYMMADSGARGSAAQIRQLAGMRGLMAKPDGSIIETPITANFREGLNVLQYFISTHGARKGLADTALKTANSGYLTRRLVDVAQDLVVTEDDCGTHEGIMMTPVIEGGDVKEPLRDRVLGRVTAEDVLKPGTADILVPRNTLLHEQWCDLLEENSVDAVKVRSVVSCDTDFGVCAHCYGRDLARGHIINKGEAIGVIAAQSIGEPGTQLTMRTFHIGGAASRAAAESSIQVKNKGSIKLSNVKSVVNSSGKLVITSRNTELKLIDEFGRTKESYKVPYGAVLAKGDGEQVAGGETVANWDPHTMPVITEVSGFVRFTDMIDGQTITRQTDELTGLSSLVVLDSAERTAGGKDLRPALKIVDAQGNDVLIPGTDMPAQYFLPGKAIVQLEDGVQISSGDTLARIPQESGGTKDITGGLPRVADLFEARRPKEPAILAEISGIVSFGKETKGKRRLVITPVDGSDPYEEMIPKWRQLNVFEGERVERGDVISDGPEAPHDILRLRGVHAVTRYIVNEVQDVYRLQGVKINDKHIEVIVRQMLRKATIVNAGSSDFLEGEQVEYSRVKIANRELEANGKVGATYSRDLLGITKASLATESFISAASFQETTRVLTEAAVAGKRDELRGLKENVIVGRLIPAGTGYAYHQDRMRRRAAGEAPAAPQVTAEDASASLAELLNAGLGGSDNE
T2 sequence (P0A800 2-91 partner): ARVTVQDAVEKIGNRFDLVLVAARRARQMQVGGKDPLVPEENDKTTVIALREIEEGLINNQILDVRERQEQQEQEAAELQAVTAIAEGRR

[2] = molecular target: T3, LpdA (dihydrolipoyl dehydrogenase) (Escherichia coli, UniProt P0A9P0); assay: as above; format: biochemical; conditions: covalent; non-enzymatic lysine acetylation, non-saturating; 5-20 mM acP, 10 mM MgCl2, pH 7.3, 37°C
T3 construct: full ORF, N-terminal His6 tag plus TDPALRA spacer (ASKA clone, pCA24N), expressed in E. coli BL21(DE3)
T3 sequence (P0A9P0 whole entry): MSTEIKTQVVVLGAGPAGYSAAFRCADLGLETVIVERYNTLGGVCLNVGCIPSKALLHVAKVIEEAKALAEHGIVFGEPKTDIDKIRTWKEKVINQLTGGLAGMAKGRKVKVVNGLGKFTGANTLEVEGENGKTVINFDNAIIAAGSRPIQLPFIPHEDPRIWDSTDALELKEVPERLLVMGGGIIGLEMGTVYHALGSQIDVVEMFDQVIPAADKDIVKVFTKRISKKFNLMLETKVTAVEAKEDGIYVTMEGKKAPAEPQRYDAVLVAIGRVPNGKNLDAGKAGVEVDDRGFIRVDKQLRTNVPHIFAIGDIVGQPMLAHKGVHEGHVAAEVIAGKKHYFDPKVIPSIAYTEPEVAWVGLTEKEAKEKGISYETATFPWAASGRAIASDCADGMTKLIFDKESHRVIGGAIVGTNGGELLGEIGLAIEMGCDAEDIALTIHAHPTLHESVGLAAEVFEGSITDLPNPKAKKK

[3] = molecular target: T4, TpiA (triosephosphate isomerase) (Escherichia coli, UniProt P0A858); assay: X-ray crystallography, crystal soak ( […] sec); format: binding; conditions: pH 6.5; active site near K11; non-covalent (K11 not acetylated)
T4 construct: full ORF, N-terminal His6 tag plus TDPALRA spacer (ASKA clone, pCA24N), expressed in E. coli BL21(DE3)
T4 sequence (P0A858 whole entry): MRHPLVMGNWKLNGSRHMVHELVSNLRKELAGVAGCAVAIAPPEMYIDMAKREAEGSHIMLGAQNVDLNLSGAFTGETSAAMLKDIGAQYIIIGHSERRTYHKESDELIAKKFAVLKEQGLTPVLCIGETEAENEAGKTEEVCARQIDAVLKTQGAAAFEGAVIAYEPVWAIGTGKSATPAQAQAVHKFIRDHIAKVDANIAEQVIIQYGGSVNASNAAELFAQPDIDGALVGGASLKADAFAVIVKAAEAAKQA

[4] = molecular target: T1, GapA (glyceraldehyde-3-phosphate dehydrogenase); assay: X-ray crystallography, crystal soak ( […] sec); format: binding; conditions: covalent; acetylation of K46, K249, K257, K116; pH 7.5

SMILES: NC(=O)c1ccc[n+]([C@@H]2O[C@H](COP(=O)(O)OP(=O)(O)OC[C@H]3O[C@@H](n4cnc5c(N)ncnc54)[C@H](O)[C@@H]3O)[C@@H](O)[C@H]2O)c1 [NAD^+]
- X-ray crystallography [1]: had either NAD^+ or pyrophosphate bound in the NAD^+-binding site

SMILES: O=P(O)(O)OP(=O)(O)O [pyrophosphate]
- X-ray crystallography ([1]; source of ligand not told): had either NAD^+ or pyrophosphate bound in the NAD^+-binding site

SMILES: CC(=O)OP(=O)(O)O [acP]
- in vitro acetylation, anti-acetyllysine Western blot and MS1 Filtering (RNAP sigma70 holoenzyme): significant relative increases in acetylation were observed for K297 of RpoA, for K1065 of RpoB
- in vitro acetylation, anti-acetyllysine Western blot and MS1 Filtering [2]: when incubated with acP, purified LpdA became acetylated in a dose- and time-dependent manner
- X-ray crystallography, crystal soak (<30 sec) [3]: The structures showed that acP bound near K11, where the substrate DHAP is seen to bind
- X-ray crystallography, crystal soak (<30 sec) [4]: acP-dependent acetylation had already occurred on four residues (i.e., K46, K249, K257, and K116)
